In patent publication US20240400553A1, “AMINE BASED MATRIPTASE 2 INHIBITORS AND USES THEREOF” (Disc Medicine, Inc., priority 2023, published 2024):

Biological target: T1, Human Recombinant Matriptase 2 (Homo sapiens, UniProt Q8IU80)
T1 construct: made in house
T1 sequence (Q8IU80 1-811): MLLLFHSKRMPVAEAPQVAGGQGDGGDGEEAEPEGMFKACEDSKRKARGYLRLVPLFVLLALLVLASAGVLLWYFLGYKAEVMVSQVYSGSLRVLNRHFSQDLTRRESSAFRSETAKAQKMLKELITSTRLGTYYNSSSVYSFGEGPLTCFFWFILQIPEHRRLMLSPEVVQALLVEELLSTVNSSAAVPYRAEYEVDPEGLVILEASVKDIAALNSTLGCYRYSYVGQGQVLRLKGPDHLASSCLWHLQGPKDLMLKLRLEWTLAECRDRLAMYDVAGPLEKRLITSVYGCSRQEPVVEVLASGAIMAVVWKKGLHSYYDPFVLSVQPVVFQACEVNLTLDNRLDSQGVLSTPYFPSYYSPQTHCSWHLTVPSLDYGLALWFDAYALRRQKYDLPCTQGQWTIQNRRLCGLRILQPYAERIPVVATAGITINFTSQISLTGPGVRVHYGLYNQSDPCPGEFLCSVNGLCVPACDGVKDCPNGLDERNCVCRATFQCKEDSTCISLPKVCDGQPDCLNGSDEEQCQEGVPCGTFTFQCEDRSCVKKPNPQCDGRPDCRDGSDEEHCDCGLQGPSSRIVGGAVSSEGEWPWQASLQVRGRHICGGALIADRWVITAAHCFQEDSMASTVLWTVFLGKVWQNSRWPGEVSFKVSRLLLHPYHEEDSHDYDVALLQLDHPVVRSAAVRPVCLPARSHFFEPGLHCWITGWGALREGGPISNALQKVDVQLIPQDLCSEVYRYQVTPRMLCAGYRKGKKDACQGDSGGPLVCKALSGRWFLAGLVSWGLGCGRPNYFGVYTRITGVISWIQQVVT
Assay: Matriptase 2 inhibition, fluorescence based assay (Method I)
Format: biochemical
Settings: Table A; Ki of Matriptase-2; read-out: Mat-2 Ki
Description: • Method I: Test compounds were evaluated for their potential to inhibit Human Recombinant Matriptase 2 (in-house) using fluorescence based assay. The concentration of Recombinant Matriptase 2 and the substrate used in the assay was: 3.5 nM (In-house Matriptase 2) and 62 μM (Boc-Gln-Ala-Arg-7-amido-4-methyl coumarin hydrobromide −Cat log: I-1550 from Bachem) respectively. The assay buffer used was 50 mM TRIS pH 7.5, 150 mM NaCl, 0.01% Gelatin TCL059 Himedia). The assay was performed using 384 well black flat bottom plate from grenier (Cat log: 781076) at 25° C. The enzyme and compound were preincubated for 30 mins, the plate was read at 60 mins after substrate addition at wavelength Ex: 360/Em: 480 nm. The final assay volume was 20 μl. A stock solution of compounds was initially prepared in DMSO and appropriate dilutions were made and IC50 was determined for all the compounds (final DMSO conc in the assay was 1%). All the measurements were carried out using the Spectramax M5, Molecular devices.
To determine Ki values, dose response curves were generated by plotting percentage inhibition as a function of inhibitor concentration and the data was fitted to sigmoidal non-linear regression equation (variable slope) using Graph Pad prism software V8.

| SMILES | Ki [nM] |
| --- | --- |
| COCCN1CC[C@H](COC(=O)c2cc3ccc(CN)nc3n2Cc2cc(NS(=O)(=O)Cc3ccccc3)cc3ccccc23)C1 (racemic) [Compound 138, rac-[(3R)-1-(2-methoxy-ethyl)pyrrolidin-3-yl]-methyl 6-(aminometh-yl)-1-{[3-(phenylmeth-anesulfonamido)naph-thalen-1-yl]methyl}-1H-pyrrolo[2,3-b]pyridine-2-carboxylate] | ≤ 100 |
| C[C@@H](CCOC(=O)c1cc2ccc(CN)nc2n1Cc1cc(NS(=O)(=O)Cc2ccccc2)cc2ccccc12)N1CCOCC1 (racemic) [Compound 143, rac-(3R)-3-(morpholin-4-yl)butyl 6-(aminometh-yl)-1-{[3-(phenylmeth-anesulfonamido)naph-thalen-1-yl]methyl}-1H-pyrrolo-[2,3-b]pyridine-2-carboxylate] | ≤ 100 |
| COCCN1CCC[C@H](COC(=O)c2cc3ccc(CN)nc3n2Cc2cc(NS(=O)(=O)Cc3ccccc3)cc3ccccc23)C1 (racemic) [Compound 144, rac-[(3R)-1-(2-methoxy-ethyl)piperidin-3-yl]-methyl 6-(aminometh-yl)-1-(phenylmethane-sulfonamido)naphthalen-1-yl]methyl}-1H-pyrrolo-[2,3-b]pyridine-2-car-boxylate] | ≤ 100 |
| C[C@H](COC(=O)c1cc2ccc(CN)nc2n1Cc1cc(NS(=O)(=O)Cc2ccccc2)cc2ccccc12)CN1CCOCC1 (racemic) [Compound 145, rac-(2R)-2-methyl-3-(morpholin-4-yl)propyl 6-(aminomethyl)-1-{[3-(phenylmethanesulfon-amido)naphthalen-1-yl]-methyl}-1H-pyrrolo[2,3-b]pyridine-2-carboxylate] | ≤ 100 |
| COCCN1CCC[C@H](COC(=O)c2cc3ccc(CN)nc3n2Cc2cc(NS(=O)(=O)Cc3ccsc3)cc3ccccc23)C1 (racemic) [Compound 166, [1-(2-methoxyethyl)-piperidin-3-yl]methyl 6-(aminomethyl)-1-({3-[(thiophen-3-yl)methane-sulfonamido]naphthalen-1-yl}methyl)-1H-pyr-rolo[2,3-b]pyridine-2-carboxylate] | ≤ 100 |
| COCCN1CC[C@H](COC(=O)c2cc3ccc(CN)nc3n2Cc2cc(NS(=O)(=O)Cc3ccsc3)cc3ccccc23)C1 (racemic) [Compound 172, [1-(2-methoxyethyl)-pyrrolidin-3-yl]methyl 6-(aminomethyl)-1-({3-[(thiophen-3-yl)methane-sulfonamido]naphthalen-1-yl}methyl)-1H-pyr-rolo[2,3-b]pyridine-2-carboxylate] | ≤ 100 |
| COCCN1CCCC(COC(=O)c2cc3ccc(CN)nc3n2Cc2cc(NS(=O)(=O)Cc3c(C)cccc3C)cc3ccccc23)C1 (racemic) [Compound 193, [1-(2-methoxyethyl)-piperidin-3-yl]methyl 6-(aminomethyl)-1-({3-[(2,6-dimethylphenyl)-methanesulfonamido]-naphthalen-1-yl}meth-yl)-1H-pyrrolo[2,3-b]-pyridine-2-carboxylate] | ≤ 100 |
| COCCN1CC[C@H](COC(=O)c2cc3ccc(CN)nc3n2Cc2cc(NS(=O)(=O)Cc3c(C)cccc3C)cc3ccccc23)C1 (racemic) [Compound 194, [1-(2-methoxyethyl)pyr-rolidin-3-yl]methyl 6-(aminomethyl)-1-({3-[(2,6-dimethylphenyl)-methanesulfonamido]-naphthalen-1-yl}meth-yl)-1H-pyrrolo[2,3-b]-pyridine-2-carboxylate] | ≤ 100 |

Same assay, conditions: Table A; Ki of Matriptase-2 given as class symbols; read-out: Mat-2 Ki

| SMILES | Ki [nM] |
| --- | --- |
| NCc1ccc2cc(C(=O)O)n(Cc3cc(NS(=O)(=O)CC4CNCCO4)cc4ccccc34)c2n1 (racemic) [Compound 224, 6-(aminomethyl)-1-({3-[(morpholin-2-yl)-methanesulfonamido]-naphthalen-1-yl}meth-yl)-1H-pyrrolo[2,3-b]-pyridine-2-carboxylic acid] | 100 to 500 |
| C[C@@H](C(=O)N(C)C)S(=O)(=O)Nc1cc(Cn2c(C(=O)O)cc3ccc(CN)nc32)c2ccccc2c1 (racemic) [Compound 255, rac-6-(aminomethyl)-1-({3-(dimethylcarbam-oyl)ethanesulfonamido]-naphthalen-1-yl}methyl)-1H-pyrrolo[2,3-b]pyr-idine-2-carboxylic acid] | ≤ 100 |
| NCc1ccc2cc(C(=O)O)n(Cc3cc(NS(=O)(=O)C[C@H]4CCCO4)cc4ccccc34)c2n1 (racemic) [Compound 257, rac-6-(aminomethyl)-1-[(3-{[(2R)-oxolan-2-yl]methanesulfonamido}-naphthalen-1-yl)methyl]-1H-pyrrolo[2,3-b]pyr-idine-2-carboxylic acid] | 100 to 500 |
| NCc1ccc2cc(C(=O)O)n(Cc3cc(NS(=O)(=O)C[C@H]4COCCN4)cc4ccccc34)c2n1 (racemic) [Compound 261, 6-(aminomethyl)-1-({3-[(morpholin-3-l)methane-sulfonamido]naphthalen-1-yl}methyl)-1H-pyr-rolo[2,3-b]pyridine-2-carboxylic acid] | 100 to 500 |
| NCc1ccc2cc(C(=O)O)n(Cc3cc(NS(=O)(=O)C[C@H]4CCOC4)cc4ccccc34)c2n1 (racemic) [Compound 262, rac-6-(aminomethyl)-1-[(3-{[(3R)-oxolan-3-yl]-methanesulfonamido}-naphthalen-1-yl)methyl]-1H-pyrrolo[2,3-b]pyr-idine-2-carboxylic acid] | 100 to 500 |
| CC(=O)O[C@H](C)OC(=O)c1cc2ccc(CN)nc2n1Cc1cc(NS(=O)(=O)CC2CCNCC2)cc2ccccc12 (racemic) [Compound 263, 1-[6-(aminomethyl)-1-({3-[(piperidin-4-yl)-methanesulfonamido]-naphthlen-1-yl}methyl)-1H-pyrrolo[2,3-b]pyr-idine-2-carbonyloxy]-ethyl acetate] | 100 to 500 |
| NCc1ccc2cc(C(=O)O)n(Cc3cc(NS(=O)(=O)[C@H]4CCOC4)cc4ccccc34)c2n1 (racemic) [Compound 273, rac-6-(aminomethyl)-1-({3-[(3R)-oxolane-3-sulfonamido]naphthalen-1-yl}methyl)-1H-pyr-rolo[2,3-b]pyridine-2-carboxylic acid] | 500 to 3000 |
| CC(C)(C)OC(=O)N1CCOC[C@@H]1CS(=O)(=O)Nc1cc(Cn2c(C(=O)O)cc3ccc(CN)nc32)c2ccccc2c1 (racemic) [Compound 277, 6-(aminomethyl)-1-{[3-({4-[(tert-butoxy)car-bonyl]morpholin-3-yl}-methanesulfonamido)-naphthalen-1-yl]methyl}-1H-pyrrolo[2,3-b]pyr-idine-2-carboxylic acid] | 500 to 3000 |
| CCN1C[C@@H](S(=O)(=O)Nc2cc(Cn3c(C(=O)O)cc4ccc(CN)nc43)c3ccccc3c2)CC1=O (racemic) [Compound 282, rac-6-(aminomethyl)-1-({3-[(3R)-1-ethyl-5-oxopyrrolidine-3-sulfon-amido]naphthalen-1-yl}-methyl)-1H-pyrrolo[2,3-b]pyridine-2-carboxylic acid] | 500 to 3000 |
| C[C@H]1CCC(C)(C)N1C(=O)Nc1cc(Cn2c(C(=O)O)cc3ccc(CN)nc32)c2ccccc2c1 (racemic) [Compound 302, rac-6-(aminomethyl)-1-[(3-{[(SR)-2,2,5-trimeth-ylpyrrolidine-1-carbon-yl]amino}naphthalen-1-yl)methyl]-1H-pyrrolo-[2,3-b]pyridine-2-carbox-ylic acid] | 500 to 3000 |
| CC(C)[C@H]1CCN(C(=O)Nc2cc(Cn3c(C(=O)O)cc4ccc(CN)nc43)c3ccccc3c2)C1 (racemic) [Compound 303, rac-6-(aminomethyl)-1-[(3-{[(3R)-3-(propan-2-yl)pyrrolidine-1-carbon-yl]amino}naphthalen-1-yl)methyl]-1H-pyrrolo-[2,3-b]pyridine-2-car-boxylic acid] | 500 to 3000 |
| CC[C@H]1CCCCN1C(=O)Nc1cc(Cn2c(C(=O)O)cc3ccc(CN)nc32)c2ccccc2c1 (racemic) [Compound 306, rac-6-(aminomethyl)-1-[(3-{[(2R)-2-ethylpiper-idine-1-carbonyl]amino}-naphthalen-1-yl)methyl]-1H-pyrrolo[2,3-b]pyr-idine-2-carboxylic acid] | 500 to 3000 |
